Assay results from patent US20260242393A1, “Preparation Method for and Use of Dihydrothienopyrimidine Derivative” (Innovstone Therapeutics Limited, priority 2023, published 2026).
Like-named read-outs stand apart in the source and are kept apart here.

Target: T1, PDE4B2 (Homo sapiens, UniProt Q07343)
T1 construct: purchased BPS bioscience
Assay: In vitro PDE4B2 enzyme inhibitory activity (AMP-Glo)
Assay type: biochemical

[1] = PDE4B2 enzyme inhibition, read-out: PDE4B2 IC50
[2] = read-out: IC50 values of PDE4B2 enzyme inhibition

T1 sequence (Q07343 1-564 isoform Q07343-2): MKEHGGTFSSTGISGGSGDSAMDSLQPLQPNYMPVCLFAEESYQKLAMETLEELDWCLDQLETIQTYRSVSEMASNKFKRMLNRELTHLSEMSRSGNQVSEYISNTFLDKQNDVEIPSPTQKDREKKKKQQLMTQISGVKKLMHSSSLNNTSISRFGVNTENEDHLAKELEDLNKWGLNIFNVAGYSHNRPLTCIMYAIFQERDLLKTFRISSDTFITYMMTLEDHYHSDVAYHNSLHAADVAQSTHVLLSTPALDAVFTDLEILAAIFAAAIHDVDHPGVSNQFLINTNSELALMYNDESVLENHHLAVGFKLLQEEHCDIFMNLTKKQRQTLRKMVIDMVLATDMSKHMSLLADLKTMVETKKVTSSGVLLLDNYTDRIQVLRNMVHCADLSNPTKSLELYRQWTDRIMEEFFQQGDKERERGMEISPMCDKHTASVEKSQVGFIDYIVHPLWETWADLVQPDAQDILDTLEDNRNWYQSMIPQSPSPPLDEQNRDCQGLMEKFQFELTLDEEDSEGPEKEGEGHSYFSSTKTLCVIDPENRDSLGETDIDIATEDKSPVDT
Experimental: 2.1.1 Preparing stock solutions of compounds in DMSO: Compound powders were dissolved in 100% DMSO to produce 10 mM stock solutions, and oscillated in a shaker until the compounds were completely dissolved.
2.1.3 Preparing working stock solutions: a) A solution of Roflumilast (reference compound) in DMSO was diluted to 60 μM, and then serially diluted 4-fold into 10 concentration gradients. B) The solutions of the test compounds in DMSO were diluted to 200 μM, and then serially diluted 3-fold. C) A 200× positive control (60 μM Roflumilast) and a 200× vehicle control (100% DMSO) were prepared. D) The assay plate was centrifuged at 1000 rpm for 1 minute.
(1) 20 nL of compound dilution solutions were transferred with Echo 550 into each well of the assay plate.
(2) The assay plate was sealed and centrifuged at 1000 rpm for 1 minute.
(3) 2×PDE4B2/PDE4D2 was prepared in an ice-cold PDE assay buffer.
(4) 2 μL of 2×PDE4B2/PDE4D2 was added to each well of the assay plate prepared in step 2.
(5) The assay plate was sealed and allowed to equilibrate at room temperature for 10 minutes.
(6) 2× Cyclic-3′,5′-AMP was prepared in a PDE assay buffer.
7) 2 μL of 2× Cyclic-3′,5′-AMP (prepared in step 6) was added to each well of the assay plate (prepared in step 5) to initiate the reaction. The plate was incubated at room temperature for 60 minutes.
8) 4 μL AMP-Glo Reagent I was added, and the plate was incubated at room temperature for 60 minutes.
9) 8 μL AMP detection reagent was added. The plate was incubated at room temperature for 60 minutes.
10) The RLU signal was read on an Envision 2105 plate reader.

Row | SMILES | IC50 [1] | IC50 [2]
1 | COC1(c2ccc(N(C)C)cc2)CN(c2nc3c(c(NC4(CO)CCC4)n2)[S+]([O-])CC3)C1 (racemic) [Compound 109, (R/S)-2-(3-(4-(dimethylamino)phenyl)-3-methoxyazetidin-1-yl)-4-((1-(hydroxymethyl)cyclobutyl)amino)-6,7-dihydrothieno[3,2-d]pyrimidine 5-oxide] | ≤ 2 nM | < 1 nM
2 | CNc1ccc(C2(OC)CN(c3nc4c(c(NC5(CO)CCC5)n3)[S+]([O-])CC4)C2)cc1 (racemic) [Compound 112, (R/S)-4-((1-(hydroxymethyl)cyclobutyl)amino)-2-(3-methoxy-3-(4-(methylamino)phenyl)azetidin-1-yl)-6,7-dihydrothieno[3,2-d]pyrimidine 5-oxide] | ≤ 2 nM | 
3 | COC1(c2ccc(Cl)c(F)c2)CN(c2nc3c(c(NC4CCOCC4)n2)[S+]([O-])CC3)C1 (racemic) [Compound 86, (R/S)-2-(3-(4-chloro-3-fluorophenyl)-3-methoxyazetidin-1-yl)-4-((tetrahydro-2H-pyran-4-yl)amino)-6,7-dihydrothieno[3,2-d]pyrimidine 5-oxide] | ≤ 2 nM | < 1 nM
4 | COc1ccc2c(c1Cl)CN(c1nc3c(c(NC4(CO)CCC4)n1)[S+]([O-])CC3)C2 (racemic) [Compound 35, (R/S)-2-(4-chloro-5-methoxyisoindolin-2-yl)-4-((1-(hydroxymethyl)cyclobutyl)amino)-6,7-dihydrothieno[3,2-d]pyrimidine 5-oxide] | 2 to 5 nM | 
5 | COc1ccc2c(c1)CN(c1nc3c(c(NC4(CO)CCC4)n1)[S+]([O-])CC3)C2 (racemic) [Compound 26, (R/S)-4-((1-(hydroxymethyl)cyclobutyl)amino)-2-(5-methoxyisoindolin-2-yl)-6,7-dihydrothieno[3,2-d]pyrimidine 5-oxide] | 2 to 5 nM | 
6 | [O-][S+]1CCc2nc(N3CC(O)(c4ccc(C(F)(F)F)cc4)C3)nc(NC3(CO)CCC3)c21 (racemic) [Compound 7, (R/S)-2-(3-hydroxy-3-(4-(trifluoromethyl)phenyl)azetidin-1-yl)-4-((1-(hydroxymethyl)cyclobutyl)amino)-6,7-dihydrothieno[3,2-d]pyrimidine 5-oxide] | 2 to 5 nM | 
7 | N#Cc1ccc2c(c1)CN(c1nc3c(c(NC4(CO)CCC4)n1)[S+]([O-])CC3)C2 (racemic) [Compound 27, (R/S)-2-(4-((1-(hydroxymethyl)cyclobutyl)amino)-5-oxido-6,7-dihydrothieno[3,2-d]pyrimidin-2-yl)isoindoline-5-carbonitrile] | 2 to 5 nM | 
8 | COc1ccc(C2(O)CN(c3nc4c(c(Nc5ccc(CC(=O)O)cc5)n3)[S+]([O-])CC4)C2)cc1Cl (racemic) [Compound 8, (R/S)-2-(4-((2-(3-(3-chloro-4-methoxyphenyl)-3-hydroxyazetidin-1-yl)-5-oxido-6,7-dihydrothieno[3,2-d]pyrimidin-4-yl)amino)phenyl)acetic acid] | 2 to 5 nM | 
9 | COc1ccc(C2(O)CN(c3nc4c(c(NC5(CO)CCC5)n3)[S+]([O-])CC4)C2)cc1 (racemic) [Compound 2, (R/S)-2-(3-hydroxy-3-(4-methoxyphenyl)azetidin-1-yl)-4-((1-(hydroxymethyl)cyclobutyl)amino)-6,7-dihydrothieno[3,2-d]pyrimidine 5-oxide] | 2 to 5 nM | 
10 | COc1ccc(C2(OC)CN(c3nc4c(c(NC5(CO)CCC5)n3)[S+]([O-])CC4)C2)cc1 (racemic) [Compound 100, (R/S)-4-((1-(hydroxymethyl)cyclobutyl)amino)-2-(3-methoxy-3-(4-methoxyphenyl)azetidin-1-yl)-6,7-dihydrothieno[3,2-d]pyrimidine 5-oxide] | ≤ 2 nM | < 1 nM
11 | COc1cc(C2(O)CN(c3nc4c(c(NC5(CO)CCC5)n3)[S+]([O-])CC4)C2)ccc1Cl (racemic) [Compound 3, (R/S)-2-(3-(4-chloro-3-methoxyphenyl)-3-hydroxyazetidin-1-yl)-4-((1-(hydroxymethyl)cyclobutyl)amino)-6,7-dihydrothieno[3,2-d]pyrimidine 5-oxide] | ≤ 2 nM | 
12 | COC1(c2ccc(Cl)cc2)CN(c2nc3c(c(NC4CCOCC4)n2)[S+]([O-])CC3)C1 (racemic) [Compound 88, (R/S)-2-(3-(4-chlorophenyl)-3-methoxyazetidin-1-yl)-4-((tetrahydro-2H-pyran-4-yl)amino)-6,7-dihydrothieno[3,2-d]pyrimidine 5-oxide] | ≤ 2 nM | < 1 nM
13 | CC(C)(O)c1ccc2c(c1)CN(c1nc3c(c(NC4CCOCC4)n1)[S+]([O-])CC3)C2 (racemic) [Compound 84, (R/S)-2-(5-(2-hydroxypropan-2-yl)isoindolin-2-yl)-4-((tetrahydro-2H-pyran-4-yl)amino)-6,7-dihydrothieno[3,2-d]pyrimidine 5-oxide] | ≤ 2 nM | 
14 | [O-][S+]1CCc2nc(N3CC(O)(c4ccc(Cl)cc4)C3)nc(NC3(CO)CCC3)c21 (racemic) [Compound 1, (R/S)-2-(3-(4-chlorophenyl)-3-hydroxyazetidin-1-yl)-4-((1-(hydroxymethyl)cyclobutyl)amino)-6,7-dihydrothieno[3,2-d]pyrimidine 5-oxide] | 2 to 5 nM | 
15 | COc1cc(C2(OC)CN(c3nc4c(c(NC5(CO)CCC5)n3)[S+]([O-])CC4)C2)ccc1Cl (racemic) [Compound 79, (R/S)-2-(3-(4-chloro-3-methoxyphenyl)-3-methoxyazetidin-1-yl)-4-((1-(hydroxymethyl)cyclobutyl)amino)-6,7-dihydrothieno[3,2-d]pyrimidine 5-oxide] | ≤ 2 nM | < 1 nM
16 | [O-][S+]1CCc2nc(N3CC(O)(c4ccc(Cl)c(F)c4)C3)nc(NC3(CO)CCC3)c21 (racemic) [Compound 80, (R/S)-2-(3-(4-chloro-3-fluorophenyl)-3-hydroxyazetidin-1-yl)-4-((1-(hydroxymethyl)cyclobutyl)amino)-6,7-dihydrothieno[3,2-d]pyrimidine 5-oxide] | 2 to 5 nM | 
17 | [O-][S+]1CCc2nc(N3Cc4ccc(Cl)cc4C3)nc(NC3CCOCC3)c21 (racemic) [Compound 85, (R/S)-2-(5-chloroisoindolin-2-yl)-4-((tetrahydro-2H-pyran-4-yl)amino)-6,7-dihydrothieno[3,2-d]pyrimidine 5-oxide] | ≤ 2 nM | 
18 | [O-][S+]1CCc2nc(N3Cc4ccc(OC(F)F)cc4C3)nc(NC3(CO)CCC3)c21 (racemic) [Compound 87, (R/S)-2-(5-(difluoromethoxy)isoindolin-2-yl)-4-((1-(hydroxymethyl)cyclobutyl)amino)-6,7-dihydrothieno[3,2-d]pyrimidine 5-oxide] | 2 to 5 nM | 
19 | [2H]C([2H])([2H])OC1(c2ccc(Cl)cc2)CN(c2nc3c(c(NC4(CO)CCC4)n2)[S+]([O-])CC3)C1 (racemic) [Compound 92, (R/S)-2-(3-(4-chlorophenyl)-3-(methoxy-d3)azetidin-1-yl)-4-((1-(hydroxymethyl)cyclobutyl)amino)-6,7-dihydrothieno[3,2-d]pyrimidine 5-oxide] | ≤ 2 nM | < 1 nM
20 | [2H]C([2H])([2H])OC1(c2ccc(Cl)cc2)CN(c2nc3c(c(NC4CCOCC4)n2)[S+]([O-])CC3)C1 (racemic) [Compound 94, (R/S)-2-(3-(4-chlorophenyl)-3-(methoxy-d3)azetidin-1-yl)-4-((tetrahydro-2H-pyran-4-yl)amino)-6,7-dihydrothieno[3,2-d]pyrimidine 5-oxide] | ≤ 2 nM | < 1 nM
21 | [O-][S+]1CCc2nc(N3CC=C(c4ccc(OC(F)F)cc4)C3)nc(NC3(CO)CCC3)c21 (racemic) [Compound 14, (R/S)-2-(3-(4-(difluoromethoxy)phenyl)-2,5-dihydro-1H-pyrrol-1-yl)-4-((1-(hydroxymethyl)cyclobutyl)amino)-6,7-dihydrothieno[3,2-d]pyrimidine 5-oxide] | 2 to 5 nM | 
22 | COC1(c2ccc(Cl)cc2)CN(c2nc3c(c(NC4(CO)CCC4)n2)[S+]([O-])CC3)C1 (racemic) [Compound 83, (R/S)-2-(3-(4-chlorophenyl)-3-methoxyazetidin-1-yl)-4-((1-(hydroxymethyl)cyclobutyl)amino)-6,7-dihydrothieno[3,2-d]pyrimidine 5-oxide] | ≤ 2 nM | < 1 nM
23 | COC1(c2ccc(Cl)c(F)c2)CN(c2nc3c(c(NC4(CO)CCC4)n2)[S+]([O-])CC3)C1 (racemic) [Compound 82, (R/S)-2-(3-(4-chloro-3-fluorophenyl)-3-methoxyazetidin-1-yl)-4-((1-(hydroxymethyl)cyclobutyl)amino)-6,7-dihydrothieno[3,2-d]pyrimidine 5-oxide] | ≤ 2 nM | < 1 nM
24 | [O-][S+]1CCc2nc(N3Cc4ccc(C(F)F)cc4C3)nc(NC3(CO)CCC3)c21 (racemic) [Compound 91, (R/S)-2-(5-(difluoromethyl)isoindolin-2-yl)-4-((1-(hydroxymethyl)cyclobutyl)amino)-6,7-dihydrothieno[3,2-d]pyrimidine 5-oxide] | 2 to 5 nM | 
25 | COC1(c2ccc(OCC3CC3)cc2)CN(c2nc3c(c(NC4(CO)CCC4)n2)[S+]([O-])CC3)C1 (racemic) [Compound 106, (R/S)-2-(3-(4-(cyclopropylmethoxy)phenyl)-3-methoxyazetidin-1-yl)-4-((1-(hydroxymethyl)cyclobutyl)amino)-6,7-dihydrothieno[3,2-d]pyrimidine 5-oxide] | ≤ 2 nM | 
26 | CS(=O)(=O)Nc1ccc2c(c1)CN(c1nc3c(c(NC4(CO)CCC4)n1)[S+]([O-])CC3)C2 (racemic) [Compound 31, (R/S)—N-(2-(4-((1-(hydroxymethyl)cyclobutyl)amino)-5-oxido-6,7-dihydrothieno[3,2-d]pyrimidin-2-yl)isoindolin-5-yl)methanesulfonamide] | 2 to 5 nM | 
27 | COC1(c2ccc(N3CCCC3)cc2)CN(c2nc3c(c(NC4(CO)CCC4)n2)[S+]([O-])CC3)C1 (racemic) [Compound 107, (R/S)-4-((1-(hydroxymethyl)cyclobutyl)amino)-2-(3-methoxy-3-(4-(pyrrolidin-1-yl)phenyl)azetidin-1-yl)-6,7-dihydrothieno[3,2-d]pyrimidine 5-oxide] | ≤ 2 nM | < 1 nM
